Laboratory results as given in patent US8524481B2, “Hide processing methods and compositions” (priority 2010, dated 2013).
Counter-ions that a name gives are not always drawn. Like-named read-outs stand apart in the source and are kept apart here. Square brackets hold non-standard residues; d marks the D form. Peptide text beside a SMILES is read from it. * marks the point of attachment. Sta = CC(C)C[C@H](N)[C@@H](O)CC(=O)O; Isovaleryl = CC(C)CC(=O)*

Tests used:
[1] = system: protease from strain SRC002 (MTCC 5564); experiment: Effect of inhibitors, metals and chemicals on protease activity; format: biochemical, Pseudomonas aeruginosa; details: for effect on protease activity: EGTA 10 mM, 1,10 Phenanthrolin 2 mM, Phosphoramidone 500 μg/ml, Antipain 20 μM, Bestatin 50 μg/ml, Chymostatin 20 μM, E-64 2 μM, Pepstatin 1 μM, Ebelacetone-B 1 μM
Strain B/GZN (MTCC 5566) = experiment: Antibiotic sensitivity by disk diffusion method, Strain B; format: cell-based, Pseudomonas aeruginosa; details: Himedia antibiotic discs, Mueller Hinton Agar, 37° C. overnight
Protocol: (§1) The sensitivity of the strains against different antibiotics was determined by disk diffusion method using commercially available (Himedia) antibiotic discs. The representative of each group of antibiotic had been tested. The antibiotics used were Ampicillin (A10), Cephadroxil (Cq30), Chloramphenicol (C30), Cloxacillin (Cx30), Cephotaxime (Ce30), Ceftazidime (Ca30), Ciprofloxacin (Cf5), Doxycycline Hydrochloride (Do30), Gentamicin (G10), Metronidazole (Mt4), Neomycin (N30), Norfloxacin (Nx10), Polymyxin B (Pb100), Rifampicin (R15), Roxithromycin (Ro30), Tetracycline (T30), Trimethoprin (Tr30), Vancomycin (Va30). The concentrations of the antibiotics in microgram per disc were mentioned in parenthesis indicated above except for Polymyxin B where it is 100 units. Mueller Hinton Agar medium (Himedia-M173) was used to grow each of the microorganisms for antibiotic sensitivity test. The log phase culture of each isolate was diluted 100 times and poured on Mueller Hinton Agar (MHA) plates. It was swirled uniformly to distribute the culture throughout the plate. After waiting for 30 mins, the cultures were carefully pipetted out from the plates and the plates were allowed to dry. Then the antibiotic disks were placed onto the MHA surface using the dispenser provided with the antibiotic discs. The plates were incubated at 37° C. for overnight. The zones of inhibition were measured. The results were evaluated using National Committee for Clinical Laboratory Standard's (NCCLS) chart provided with the antibiotic discs by Himedia. The assay was repeated three times for each organism.

[2] = system: Strain A/SRC002 (MTCC 5564); experiment: Antibiotic sensitivity by disk diffusion method, Strain A; format: cell-based, Pseudomonas aeruginosa; details: Himedia antibiotic discs, Mueller Hinton Agar, 37° C. overnight
Protocol: as §1

[3] = concentration not given, crude enzyme for the partial inhibitors

Row | Compound | effect on enzyme activity [1, 3] | antibiotic sensitivity (zones of inhibition evaluated by NCCLS chart) (Strain B/GZN (MTCC 5566)) | antibiotic sensitivity (zones of inhibition evaluated by NCCLS chart) [2] | other results
1 | [Cr] [Cr] | – | – | – | enzyme activity retained in the presence of metal [1]: up to 90%
2 | c1cnc2c(c1)ccc1cccnc12 [1,10 Phenanthrolin] | completely inhibited | – | – | effect on protease activity [1]: completely inhibited
3 | O=C(O)CN(CCN(CC(=O)O)CC(=O)O)CC(=O)O [EDTA] | – | – | – | effect on enzyme activity [1]: inactivated
4 | CC(C)C[C@H](NP(=O)(O)O[C@@H]1O[C@@H](C)[C@H](O)[C@@H](O)[C@H]1O)C(=O)N[C@@H](Cc1c[nH]c2ccccc12)C(=O)O [Phosphoramidone] | completely inhibited | – | – | effect on protease activity [1]: completely inhibited
5 | [Ag] [Ag] | – | – | – | enzyme activity retained in the presence of metal ([1]; concentration not given): 76%
6 | Triton X 100 | partially inhibited | – | – | –
7 | OO [hydrogen peroxide] | partially inhibited | – | – | –
8 | CC(C)C[C@H](NC(=O)[C@H]1O[C@@H]1C(=O)O)C(=O)NCCCCN=C(N)N [Strain E-64, E-64] | no inhibitory effect | – | – | effect on protease activity [1]: almost no effect
9 | CO/N=C(\C(=O)N[C@@H]1C(=O)N2C(C(=O)O)=C(COC(C)=O)CS[C@H]12)c1csc(N)n1 [Cephotaxime] | – | intermediate response | resistant | –
10 | CC(C)(O/N=C(\C(=O)N[C@@H]1C(=O)N2C(C(=O)[O-])=C(C[n+]3ccccc3)CS[C@H]12)c1csc(N)n1)C(=O)O [Ceftazidime] | – | intermediate response | resistant | –
11 | CC[C@@H](C)[C@@H](O)[C@H](C)C(=O)[C@H](C)/C=C(\C)C[C@H](C)[C@@H]1OC(=O)[C@H]1CC [Ebelacetone-B] | no inhibitory effect | – | – | effect on protease activity [1]: almost no effect
12 | CC(C)C[C@H](NC(=O)[C@@H](O)[C@H](N)Cc1ccccc1)C(=O)O [Bestatin] | no inhibitory effect | – | – | effect on protease activity [1]: almost no effect
13 | O=C(O)c1cn(C2CC2)c2cc(N3CCNCC3)c(F)cc2c1=O [Ciprofloxacin] | – | resistant | sensitive | –
14 | [Zn] [Zn] | – | – | – | enzyme activity retained in the presence of metal ([1]; concentration not given): 34%
15 | OCCS [beta-merceptoethanol] | partially inhibited | – | – | –
16 | CC1(C)S[C@@H]2[C@H](NC(=O)[C@H](N)c3ccccc3)C(=O)N2[C@H]1C(=O)O [Ampicillin] | – | resistant | resistant | –
17 | [Ni] [Ni] | – | – | – | enzyme activity retained in the presence of metal ([1]; concentration not given): 70%
18 | [Co] [Co] | – | – | – | enzyme activity retained in the presence of metal ([1]; concentration not given): 82%
19 | CN[C@H](CC(C)C)C(=O)N[C@H]1C(=O)N[C@@H](CC(N)=O)C(=O)N[C@H]2C(=O)N[C@H]3C(=O)N[C@H](C(=O)N[C@H](C(=O)O)c4cc(O)cc(O)c4-c4cc3ccc4O)[C@H](O)c3ccc(c(Cl)c3)Oc3cc2cc(c3O[C@@H]2O[C@H](CO)[C@@H](O)[C@H](O)[C@H]2O[C@H]2C[C@](C)(N)[C@H](O)[C@H](C)O2)Oc2ccc(cc2Cl)[C@H]1O [Vancomycin] | – | resistant | resistant | –

Row | Compound | effect on enzyme activity [1, 3] | antibiotic sensitivity (zones of inhibition evaluated by NCCLS chart) (Strain B/GZN (MTCC 5566)) | antibiotic sensitivity (zones of inhibition evaluated by NCCLS chart) [2] | other results
20 | C[C@H]1c2cccc(O)c2C(=O)C2=C(O)[C@]3(O)C(=O)C(C(N)=O)=C(O)[C@@H](N(C)C)[C@@H]3[C@@H](O)[C@@H]21 [Doxycycline hydrochloride, Doxycycline Hydrochloride] | – | resistant | resistant | –
21 | COc1cc(Cc2cnc(N)nc2N)cc(OC)c1OC [Trimethoprim] | – | intermediate response | resistant | –
22 | Gentamicin [Gentamycine] | – | sensitive | resistant | –
23 | [Cd] [Cd] | – | – | – | enzyme activity retained in the presence of metal ([1]; concentration not given): 34%
24 | [Al] [Al] | – | – | – | enzyme activity retained in the presence of metal ([1]; concentration not given): 70%
25 | CC(C)C[C@H](NC(=O)[C@@H](NC(=O)N[C@@H](Cc1ccccc1)C(=O)O)[C@@H]1CCN=C(N)N1)C(=O)N[C@H](C=O)Cc1ccccc1 [Chymostatin] | no inhibitory effect | – | – | effect on protease activity [1]: almost no effect
26 | [Hg] [Hg] | complete inhibition | – | – | –
27 | CN(C)[C@@H]1C(=O)C(C(N)=O)=C(O)[C@@]2(O)C(=O)C3=C(O)c4c(O)cccc4[C@@](C)(O)[C@H]3C[C@@H]12 [Tetracyclin, Tetracycline] | – | resistant | resistant | –
28 | NC[C@@H]1O[C@H](O[C@H]2[C@@H](O)[C@H](O[C@@H]3[C@@H](O)[C@H](N)C[C@H](N)[C@H]3O[C@H]3O[C@H](CN)[C@@H](O)[C@H](O)[C@H]3N)O[C@@H]2CO)[C@H](N)[C@@H](O)[C@@H]1O [Neomycine, Neomycin] | – | intermediate response | sensitive | –
29 | CC(C)CC(=O)N[C@H](C(=O)N[C@H](C(=O)N[C@@H](CC(C)C)[C@@H](O)CC(=O)N[C@@H](C)C(=O)N[C@@H](CC(C)C)[C@@H](O)CC(=O)O)C(C)C)C(C)C [Pepstatin] (Isovaleryl-VV[Sta]A[Sta]-OH) | no inhibitory effect | – | – | effect on protease activity [1]: almost no effect
30 | Polymyxin B [PolymyxinB] | – | resistant | resistant | –
31 | Cc1ncc([N+](=O)[O-])n1CCO [Metronidazole] | – | – | resistant | –
32 | [Cu] [Cu] | – | – | – | enzyme activity retained in the presence of metal ([1]; concentration not given): 50%
33 | CCn1cc(C(=O)O)c(=O)c2cc(F)c(N3CCNCC3)cc21 [Norfloxacine, Norfloxacin] | – | resistant | sensitive | –
34 | [Pb] [Pb] | – | – | – | enzyme activity retained in the presence of metal ([1]; concentration not given): 50%
35 | O=C(N[C@H](CO)[C@H](O)c1ccc([N+](=O)[O-])cc1)C(Cl)Cl [Cloramphenicol, Chloramphenicol] | – | intermediate response | resistant | –
36 | CC1=C(C(=O)O)N2C(=O)[C@@H](NC(=O)[C@H](N)c3ccc(O)cc3)[C@H]2SC1 [Cephadroxil] | – | – | resistant | –
37 | O=C(O)CN(CCOCCOCCN(CC(=O)O)CC(=O)O)CC(=O)O [EGTA] | completely inhibited | – | – | effect on protease activity [1]: completely inhibited
38 | Cc1onc(-c2ccccc2Cl)c1C(=O)N[C@@H]1C(=O)N2[C@@H]1SC(C)(C)[C@@H]2C(=O)O [Cloxacillin] | – | – | resistant | –
